{
  "source": "paper PMC3774728",
  "about": "“Identification of the Plant Compound Geraniin as a Novel Hsp90 Inhibitor” (PLoS ONE, 2013)",
  "key": {"[1]": {"test_system": "Hsp70, Hsp90 and Hsp90 client proteins in Jurkat cells", "assay": "Western blot of Hsp70 and Hsp90 client proteins, Jurkat", "type": "cell-based, human", "details": "24 h", "experimental": "(§1) Treated cells were harvested and disrupted by freeze−thawing in RIPA buffer (50 mM Hepes, 10 mM EDTA, 150 mM NaCl, 1% NP-40, 0.5% sodium deoxycholate, 0.1% SDS, pH 7.4), supplemented with protease inhibitors cocktail (Sigma-Aldrich). Cell debris was removed by centrifugation at 4°C and the supernatant protein concentration was determined, according to the Bio-Rad Protein assay (Biorad Laboratories, CA, USA). Total proteins (30 µg) were separated by SDS-PAGE under denatured reducing conditions. Separated proteins were then transferred to nitrocellulose membranes and blocked for 3 h with a solution containing 3% BSA in 50 mM Tris, 200 mM NaCl, 0.1% Tween 20, before incubation at 4°C overnight with the different primary antibodies (diluted 1∶1000) against specific proteins. After washing, the membranes were incubated with an appropriate peroxidase-conjugate secondary antibodies at room temperature (1 h). Immunoreactive protein bands were detected by enhanced chemiluminescence reagent (ECL, Rockford, USA), according to the manufacturer’s instructions. Quantitative densitometry analyses were performed using a Gel Doc 2000 system (Biorad Laboratories, CA, USA).\nFigure 7 Effect of geraniin on Hsp90 client protein levels. Equal amounts (30 µg) of whole-cell lysates were separated on SDS-PAGE and client proteins were visualized by western blot analysis using specific antibodies. Actin was used as loading control. […] The blots shown are representative of three different experiments with similar results."}, "[2]": {"test_system": "Hsp70, Hsp90 and Hsp90 client proteins in HeLa cells", "assay": "Western blot of Hsp70 and Hsp90 client proteins, HeLa", "type": "cell-based, human", "details": "24 h", "experimental": "as §1\nFigure 7 Effect of geraniin on Hsp90 client protein levels. Equal amounts (30 µg) of whole-cell lysates were separated on SDS-PAGE and client proteins were visualized by western blot analysis using specific antibodies. Actin was used as loading control. Total cellular proteins were extracted 24 h after treatment with geraniin (2.5 µM, 5 µM and 10 µM) in Jurkat cells (A) or geraniin (1 µM, 0.7 µM and 0.5 µM) in HeLa cells (B), ctrl = control cells treated with DMSO). The blots shown are representative of three different experiments with similar results."}, "Hsp90α ATPase activity": {"biological_target": "T1, Hsp90α ATPase activity (Homo sapiens, UniProt P07900)", "T1 construct": "purchased Assay Designs (Ann Arbor, MI, USA)", "assay": "ATP hydrolysis inhibition (ADP Hunter Plus assay)", "type": "biochemical", "details": "40 nM Hsp90α, 100 µM ATP, 60 min, 40°C", "experimental": "The assay was performed using the Discover RX ADP HunterTM Plus Assay kit, following the manufacturer’s instructions. ATPase reactions were carried out for 60 min at 40°C temperature in 100 mM Tris pH 7.4, 100 µM ATP and 40 nM Hsp90α in the presence of different concentrations of geraniin or 17-AAG. ADP generation was measured using a Perkin Elmer LS 55 fluorimeter (540 nm excitation and 620 nm emission). Fluorescence intensity values measured for Hsp90α without any compound were set at 100% of enzyme activity. The background reaction rate was measured in a reaction lacking enzyme or substrate and subtracted from the experimental rates.\nFigure 3 Inhibition of Hsp90α activity. ATPase activity of the chaperone was evaluated in the presence of different concentrations of geraniin, 17-AAG and HA (A). Data are reported as the residual ATPase activity (%) compared to that observed for an untreated sample. Data are the mean of three independent experiments performed in triplicate and were analyzed by t test (HA vs testing compounds): The error bar represents the standard deviation of nine measurements, while * indicates significance at P<0.01. Aggregation kinetics of citrate synthase (CS) at 43°C determined by light scattering (B). […]"}, "[3]": {"details": "IC50 and lower and higher concentrations"}},
  "data": [
    {"smiles": "O=C1O[C@H]2[C@@H]3OC(=O)c4cc(O)c(O)c(O)c4-c4c(cc(O)c(O)c4O)C(=O)OC[C@H]2O[C@@H](OC(=O)c2cc(O)c(O)c(O)c2)[C@@H]3OC(=O)c2cc(O)c(O)c3c2[C@@H]2C1=CC(=O)[C@](O)(O3)C2(O)O", "note": "[Compound 54, geraniin]", "values": [
      {"measurement": "Hsp70 expression increase", "setting": "[1]; 1 µM geraniin", "result": "3.5±0.12", "unit": "fold"},
      {"measurement": "level of Akt", "setting": "[1]", "result": "unaffected"},
      {"measurement": "level of the client proteins c-Raf, pAkt and EGFR", "setting": "[1]; [3]", "result": "dose-dependent decrease"},
      {"measurement": "Hsp70 expression increase", "setting": "[2]; 10 µM geraniin", "result": "2.7±0.09", "unit": "fold"},
      {"measurement": "level of Akt", "setting": "[2]", "result": "unaffected"},
      {"measurement": "level of the client proteins c-Raf, pAkt and EGFR", "setting": "[2]; [3]", "result": "dose-dependent decrease"},
      {"measurement": "Hsp90α ATPase activity inhibition", "setting": "Hsp90α ATPase activity", "result": "inhibit Hsp90α ATPase activity in a dose−dependent manner"}
    ]}
  ]
}
